Data on 1 compound can be found in US20100203110A1, “Therapeutics for Cancer Using 3-Bromopyruvate and Other Selective Inhibitors of ATP Production” (The Johns Hopkins University, priority 2006, published 2010).

In experiment [1] the test system is HepG2. The experiment is described as follows: ATP levels after treatment, HepG2. In kind it is cell-based, human. To be noted: 0.1, 0.2, 0.3 mM for 1 and 3 hours. The method, then:
ATP levels were measured in various cell lines, e.g., HepG2, Sk-Hep1, and Vx-2 after 3-bromopyruvate treatment. In each case, cells were treated with increasing concentration of 3-bromopyruvate (0.1 mM, 0.2 mM, and 0.3 mM) for 1 and 3 hours before measuring ATP levels in the cell. FIGS. 5 (A-C) show the ATP depletion observed following 3-bromopyruvate treatment in HepG2, Sk-Hep1, and Vx-2 cell lines, respectively.

For experiment [2], the target named is T1, Type II hexokinase (Homo sapiens, UniProt P52789).
T1 construct: The cells were harvested, total protein extracted, purified and used to run a western blot; endogenous in cells; host or cells: Hep G2
T1 sequence (P52789 1-917): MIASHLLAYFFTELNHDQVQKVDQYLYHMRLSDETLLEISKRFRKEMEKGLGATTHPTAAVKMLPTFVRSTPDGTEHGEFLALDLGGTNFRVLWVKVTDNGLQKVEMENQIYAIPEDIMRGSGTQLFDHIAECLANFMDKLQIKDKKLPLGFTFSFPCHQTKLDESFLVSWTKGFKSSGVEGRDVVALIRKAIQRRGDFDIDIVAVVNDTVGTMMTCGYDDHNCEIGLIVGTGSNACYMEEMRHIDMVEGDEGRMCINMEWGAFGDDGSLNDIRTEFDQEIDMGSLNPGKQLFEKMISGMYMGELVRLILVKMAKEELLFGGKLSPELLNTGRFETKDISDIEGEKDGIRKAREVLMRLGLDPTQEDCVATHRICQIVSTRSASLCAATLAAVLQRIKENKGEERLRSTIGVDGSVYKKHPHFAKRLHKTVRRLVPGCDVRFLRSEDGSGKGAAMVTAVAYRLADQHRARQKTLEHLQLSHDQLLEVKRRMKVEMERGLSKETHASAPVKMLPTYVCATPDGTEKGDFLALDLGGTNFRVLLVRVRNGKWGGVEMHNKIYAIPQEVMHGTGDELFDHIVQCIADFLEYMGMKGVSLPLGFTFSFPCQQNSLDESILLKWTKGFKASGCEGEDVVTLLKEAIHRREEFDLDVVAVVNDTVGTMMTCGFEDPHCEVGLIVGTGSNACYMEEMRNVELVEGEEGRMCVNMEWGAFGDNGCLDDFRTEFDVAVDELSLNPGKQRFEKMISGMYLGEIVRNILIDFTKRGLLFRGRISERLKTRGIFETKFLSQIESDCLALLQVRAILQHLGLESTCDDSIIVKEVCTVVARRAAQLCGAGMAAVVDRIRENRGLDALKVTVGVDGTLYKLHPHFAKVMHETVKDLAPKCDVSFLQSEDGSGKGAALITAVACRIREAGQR
The experiment is described as follows: Binding of 14C-labeled 3-bromopyruvate in Hep G2 cells (western blot / autoradiograph). To be noted: 1 hour in HBSS. As for the experimental part: In a further study, the human hepatocellular carcinoma cell line (HCC), Hep G2, was treated with ^14C-labeled 3-bromopyruvate for a period of 1 hour in HBSS. The cells were harvested, total protein extracted, purified and used to run a western blot. They were then transferred onto a membrane, probed with a Type II hexokinase specific antibody and the antibody binding signal was captured on film through Chemiluminescent detection system (western blotting). The corresponding gel was also separately exposed to an autoradiograph.

In experiment [3] the test system is VX2 tumor. The experiment is described as follows: FDG uptake in orthotopic rabbit model of liver cancer, IA versus IV. In kind it is in vivo. The method, then:
To develop a new therapeutic strategy to cure patients with hepatocellular carcinoma, a similar series of experiments was conducted on the orthotopic rabbit model of liver cancer (VX2). The effects of 3-bromopyruvate injected intraarterially (IA) was compared to those of 3-bromopyruvate injected intravenously (N) on FDG uptake in the VX2 tumor. The optimal dose of 3-bromopyruvate for both IA and N administration was then determined through an extensive dose-response analysis. In the IA group, 3-bromopyruvate was infused over one hour, FDG injected at the 30-minute mark and all animals were then sacrificed one hour after the FDG injection. Tumors and all major organs were removed, weighed and analyzed in a gamma counter.

Experiment [4] has as its system back adipose tissue (BAT). The experiment is described as follows: FDG uptake after IP injection in non-tumor bearing rats. It is filed as in vivo, rat. The source says:
After having established the anti-glycolytic effect of 3-bromopyruvate in vitro, we designed a series of experiments to confirm this property in vivo. For this purpose, two different animal models, the Lewis rat mammary tumor model and the orthotopic VX2 rabbit liver cancer model were used. Since glucose uptake can be monitored using fluorine-labeled deoxyglucose (FDG), potential sites of decreased FDG uptake as a result of 3-bromopyruvate activity could be identified. The effects of intraperitonealy (IP) injected 3-bromopyruvate in non-tumor bearing rats were compared to those in tumor bearing rats. The tumors were derived from the rat mammary tumor (RMT) cell line and transplanted into the back adipose tissue of the rat and allowed to grow for 10 days. After having determined the maximum tolerated dose, all animals received two bolus doses (one hour apart) of 3-bromopyruvate injected IP. The FDG was injected 30 minutes after the first injection of 3-bromopyruvate and all animals were sacrificed 60 minutes after the FDG was injected. The tumors and all major organs were removed, weighed and analyzed in a gamma counter. […]

[5] abbreviates: IA group, infused over one hour.

In the case of `O=C(O)C(=O)CBr` [3-bromopyruvate], in experiment [1], the ATP levels result is listed as “ATP depletion”. The “binding to Type II hexokinase” value in experiment [2] is given as “directly binds”. In addition, in experiment [3] (setting [5]), the “FDG uptake in any other organs” value was “No difference in uptake” and the “reduction of FDG uptake in the tumor” value is on record as 80%. In addition, in experiment [3] (N (intravenous) group), the “FDG uptake in other organs” value was “decreases in FDG uptake were also recorded in the lung, brain and liver”; the “decrease of FDG uptake in the tumor” value is 30%. In addition, in experiment [4] (two IP bolus doses), the “FDG uptake in other organs” value was “affected no other organs”. The “decrease in FDG uptake (percentage of injected dose per gram of tissue) in back adipose tissue” value in experiment [4] (two IP bolus doses one hour apart) turned out to be 10 fold.
